Legend:
[1] = biological target: CFTR (cystic fibrosis transmembrane conductance regulator) (Homo sapiens, UniProt P13569); assay: short-circuit current in HT-29 cells, FSK-stimulated; also inhibits current with genistein (direct activator, IC50 […]); format: cell-based
[2] = biological target: T1, TMEM16A (transmembrane protein 16A) (Homo sapiens, UniProt Q5XXA6); assay: YFP iodide-influx fluorescence quenching in TMEM16A-expressing FRT cells; Eact-stimulated short-circuit current; format: cell-based
T1 construct: gene ANO1
T1 sequence (Q5XXA6 1-986): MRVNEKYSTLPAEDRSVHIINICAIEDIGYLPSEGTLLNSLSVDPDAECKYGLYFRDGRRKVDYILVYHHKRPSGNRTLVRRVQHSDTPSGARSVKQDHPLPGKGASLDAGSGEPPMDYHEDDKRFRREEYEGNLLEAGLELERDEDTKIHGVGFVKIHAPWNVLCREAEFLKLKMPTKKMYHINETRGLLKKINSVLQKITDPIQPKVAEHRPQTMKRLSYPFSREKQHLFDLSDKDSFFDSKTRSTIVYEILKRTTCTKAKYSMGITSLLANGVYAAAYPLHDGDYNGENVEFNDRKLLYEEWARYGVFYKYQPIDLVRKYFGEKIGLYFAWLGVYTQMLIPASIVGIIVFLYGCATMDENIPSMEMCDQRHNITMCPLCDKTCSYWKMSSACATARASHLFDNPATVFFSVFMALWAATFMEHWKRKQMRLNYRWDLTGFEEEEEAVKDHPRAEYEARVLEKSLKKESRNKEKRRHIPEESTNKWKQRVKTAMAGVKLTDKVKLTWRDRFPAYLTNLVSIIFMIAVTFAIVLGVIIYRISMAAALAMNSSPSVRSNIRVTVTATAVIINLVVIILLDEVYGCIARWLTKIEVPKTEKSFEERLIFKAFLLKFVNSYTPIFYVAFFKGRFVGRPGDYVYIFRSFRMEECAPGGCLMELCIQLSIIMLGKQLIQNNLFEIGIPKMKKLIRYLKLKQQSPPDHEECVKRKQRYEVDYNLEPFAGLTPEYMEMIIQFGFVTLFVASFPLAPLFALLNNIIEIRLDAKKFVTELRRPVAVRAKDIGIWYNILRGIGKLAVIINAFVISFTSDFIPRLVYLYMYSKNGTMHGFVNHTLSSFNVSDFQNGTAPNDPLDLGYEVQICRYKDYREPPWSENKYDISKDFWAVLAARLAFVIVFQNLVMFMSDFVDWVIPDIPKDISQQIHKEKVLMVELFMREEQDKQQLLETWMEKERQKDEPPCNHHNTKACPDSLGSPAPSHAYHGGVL

Sequence of CFTR (cystic fibrosis transmembrane conductance regulator) (P13569 whole entry): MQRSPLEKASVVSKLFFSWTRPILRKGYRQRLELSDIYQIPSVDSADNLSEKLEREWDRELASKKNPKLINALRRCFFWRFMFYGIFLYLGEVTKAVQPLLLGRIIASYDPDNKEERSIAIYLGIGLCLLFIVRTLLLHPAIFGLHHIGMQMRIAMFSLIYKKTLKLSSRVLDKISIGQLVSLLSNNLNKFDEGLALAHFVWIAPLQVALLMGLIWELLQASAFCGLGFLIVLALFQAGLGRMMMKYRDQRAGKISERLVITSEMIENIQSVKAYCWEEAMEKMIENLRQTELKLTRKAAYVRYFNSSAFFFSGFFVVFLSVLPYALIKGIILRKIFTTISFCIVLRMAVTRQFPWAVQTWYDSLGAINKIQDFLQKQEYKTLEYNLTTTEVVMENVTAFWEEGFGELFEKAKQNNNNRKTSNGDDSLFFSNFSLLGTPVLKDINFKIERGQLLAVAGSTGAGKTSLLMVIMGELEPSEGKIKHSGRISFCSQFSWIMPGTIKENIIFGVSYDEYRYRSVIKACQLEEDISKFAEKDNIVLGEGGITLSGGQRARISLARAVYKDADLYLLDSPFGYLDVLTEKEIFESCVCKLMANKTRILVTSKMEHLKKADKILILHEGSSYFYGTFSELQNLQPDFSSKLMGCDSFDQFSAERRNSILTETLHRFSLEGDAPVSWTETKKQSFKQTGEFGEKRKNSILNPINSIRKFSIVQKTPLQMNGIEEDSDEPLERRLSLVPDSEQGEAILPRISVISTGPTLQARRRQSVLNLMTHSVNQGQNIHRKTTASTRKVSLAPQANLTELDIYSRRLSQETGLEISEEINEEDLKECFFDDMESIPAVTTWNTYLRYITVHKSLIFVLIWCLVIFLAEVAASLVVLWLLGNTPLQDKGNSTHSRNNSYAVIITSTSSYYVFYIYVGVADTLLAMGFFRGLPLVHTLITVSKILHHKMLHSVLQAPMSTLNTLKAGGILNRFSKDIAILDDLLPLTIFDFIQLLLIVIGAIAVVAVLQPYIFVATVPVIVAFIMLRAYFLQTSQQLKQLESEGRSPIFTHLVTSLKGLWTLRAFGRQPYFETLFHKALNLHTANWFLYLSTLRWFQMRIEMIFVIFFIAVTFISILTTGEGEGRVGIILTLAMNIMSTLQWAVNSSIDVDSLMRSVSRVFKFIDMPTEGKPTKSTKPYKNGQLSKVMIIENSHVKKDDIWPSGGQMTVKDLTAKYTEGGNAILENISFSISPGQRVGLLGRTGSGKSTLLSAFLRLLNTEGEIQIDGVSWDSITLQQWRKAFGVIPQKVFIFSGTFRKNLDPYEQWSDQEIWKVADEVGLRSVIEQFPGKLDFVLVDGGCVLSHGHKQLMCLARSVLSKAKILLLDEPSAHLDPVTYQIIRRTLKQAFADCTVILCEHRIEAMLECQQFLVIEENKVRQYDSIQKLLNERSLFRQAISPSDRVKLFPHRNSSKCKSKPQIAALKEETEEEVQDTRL

Compound: CC1=CC(=O)c2c(O)cccc2C1=O [plumbagin]
- IC50 [1]: 3.9 µM
- IC50 [2]: ~12.5 µM
